Broadly, the IC50 is the concentration needed to halve the response being measured.

The values that follow come from US6683055B1, “Low molecular weight inhibitors of complement proteases” (BASF Aktiengesellschaft, priority 1999, dated 2004).

Structures can show the parent of a compound that is named as a salt. A value given as a limit tells only on which side of the number the result lay.

Test [1] has as its target T1, C1r from human plasma, activated, two-chain form (Homo sapiens, UniProt P00736).
T1 construct: from tissue; host or cells: human plasma
T1 sequence (P00736 18-463 partner limits assumed): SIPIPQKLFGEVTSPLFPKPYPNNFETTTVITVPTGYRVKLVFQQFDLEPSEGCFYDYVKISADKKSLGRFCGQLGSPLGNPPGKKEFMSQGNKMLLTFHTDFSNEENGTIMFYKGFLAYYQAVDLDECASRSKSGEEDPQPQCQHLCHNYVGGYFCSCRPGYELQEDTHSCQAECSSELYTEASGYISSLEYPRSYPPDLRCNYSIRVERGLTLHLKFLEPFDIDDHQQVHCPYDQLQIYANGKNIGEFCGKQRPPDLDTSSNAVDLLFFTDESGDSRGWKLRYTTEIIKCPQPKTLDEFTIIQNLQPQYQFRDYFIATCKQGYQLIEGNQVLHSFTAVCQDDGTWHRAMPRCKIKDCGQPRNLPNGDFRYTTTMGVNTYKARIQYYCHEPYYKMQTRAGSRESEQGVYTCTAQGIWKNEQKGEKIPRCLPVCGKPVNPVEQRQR
T1 sequence (P00736 464-705 limits assumed): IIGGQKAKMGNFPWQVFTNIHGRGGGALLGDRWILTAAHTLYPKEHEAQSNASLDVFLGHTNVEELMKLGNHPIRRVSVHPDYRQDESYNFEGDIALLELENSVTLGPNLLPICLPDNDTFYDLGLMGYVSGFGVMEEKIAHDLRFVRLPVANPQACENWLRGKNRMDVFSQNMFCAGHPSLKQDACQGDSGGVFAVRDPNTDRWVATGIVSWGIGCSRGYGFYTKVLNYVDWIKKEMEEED
The experiment in a line: Color substrate test for C1r inhibition (Example A). The test is classed as biochemical. Conditions: amidolytic C1r activity, substrate Cbz-Gly-Arg-S-Bzl; read-out: C1R IC50 according to Example A. From the text:
Color Substrate Test for C1r Inhibition

Test [2] deals with T2, C1s from human plasma, activated, two-chain form (Homo sapiens, UniProt P09871).
T2 construct: from tissue; host or cells: human plasma
T2 sequence (P09871 16-437 partner limits assumed): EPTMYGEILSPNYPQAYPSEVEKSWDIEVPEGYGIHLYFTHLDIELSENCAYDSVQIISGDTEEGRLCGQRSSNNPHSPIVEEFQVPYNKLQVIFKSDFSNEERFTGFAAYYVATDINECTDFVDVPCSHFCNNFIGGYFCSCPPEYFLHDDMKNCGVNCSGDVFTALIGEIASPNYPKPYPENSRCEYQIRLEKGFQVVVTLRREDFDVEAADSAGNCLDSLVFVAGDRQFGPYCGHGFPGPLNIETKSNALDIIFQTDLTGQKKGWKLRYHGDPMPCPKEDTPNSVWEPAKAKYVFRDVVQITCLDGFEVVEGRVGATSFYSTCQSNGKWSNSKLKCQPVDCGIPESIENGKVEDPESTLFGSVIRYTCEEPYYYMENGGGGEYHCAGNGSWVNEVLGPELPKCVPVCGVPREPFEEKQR
T2 sequence (P09871 438-688 limits assumed): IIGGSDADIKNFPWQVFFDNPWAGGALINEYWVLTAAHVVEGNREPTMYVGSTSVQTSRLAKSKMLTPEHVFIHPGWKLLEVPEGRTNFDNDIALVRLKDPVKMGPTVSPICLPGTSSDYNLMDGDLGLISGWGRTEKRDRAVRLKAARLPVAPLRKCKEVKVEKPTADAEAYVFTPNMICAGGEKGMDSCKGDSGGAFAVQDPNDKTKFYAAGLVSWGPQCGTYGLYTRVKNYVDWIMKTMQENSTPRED
The experiment in a line: Color substrate test for C1s inhibition (Example B). It is filed as biochemical. The conditions noted are these: amidolytic C1s activity, substrate Cbz-Gly-Arg-S-Bzl; read-out: C1S IC50 according to Example B. From the text: Material and Methods: Color Subrate Test for C1s Inhibition

With “2-C6H10—CH2-Gly-Pro-NH-p-amb.2HCl [Example 7]”, the IC50 in test [1] is over 100 µM; in test [2], 4 µM. On the same counts, the results for `N=C(N)c1ccc(CNC(=O)[C@@H]2CCCN2C(=O)[C@@H](Cc2ccccc2)NS(=O)(=O)CC(F)(F)F)cc1` [Example 1, CF3—CH2—SO2-(D)Phe-Pro-NH-p-amb.CH3COOH] are over 100 µM and 6 µM. In the same order, the values of `CCCCCCCCS(=O)(=O)N[C@H](Cc1ccccc1)C(=O)N1CCC[C@H]1C(=O)NCc1ccc(C(=N)N)cc1` [Example 2, n-Octyl-SO2-(D)Phe-Pro-NH-p-amb.CH3COOH] are 50 µM and 20 µM.

With `N=C(N)c1ccc(CNC(=O)[C@@H]2CCCN2C(=O)[C@@H](Cc2ccccc2)NS(=O)(=O)c2cccnc2)cc1` [Example 3, 3-Py-SO2-(D)Phe-Pro-NH-p-amb.CH3COOH], the IC50 in test [1] was over 100 µM; in test [2], 30 µM. On the same counts, the results for `CS(=O)(=O)N[C@H](CC1CCCCC1)C(=O)N1CC=C[C@H]1C(=O)NCc1ccc(C(=N)N)cc1` [Example 4, CH3—SO2-(D)Cha-Pyr-NH-p-amb.CH3COOH] are 30 µM and 3 µM. Take `CC(C)[C@@H](N)C(=O)N1CCC[C@H]1C(=O)NCc1ccc(C(=N)N)cc1` [Example 5, H-(D)Val-Pro-NH-p-amb.2HCl]: in test [2], the IC50 amounted to 10 µM. On the same count and under the same terms, with `CC(C)(C)OC(=O)N[C@H](CC(=O)OCc1ccccc1)C(=O)N1CCC[C@H]1C(=O)NCc1ccc(C(=N)N)cc1` [Example 6, Boc-(D)Asp(OBn)-Pro-NH-p-amb.CH3COOH] the figure was 6 µM. Consider `N=C(N)c1ccc(CNC(=O)[C@@H]2CCCN2C(=O)CNC(=O)CCc2ccccc2)cc1` [Example 8, C6H5—CH2—CH2—CO-Gly-Pro-NH-p-amb.HI], for which the IC50 in test [1] was over 100 µM; in test [2], 6 µM. On the same counts, the results for `N=C(N)c1ccc(CNC(=O)[C@@H]2CCCN2C(=O)CNC(=O)CCCc2ccccc2)cc1` [Example 9, C6H5—(CH2)3—CO-Gly-Pro-NH-p-amb.HI] are over 100 µM and 20 µM. On the same counts, the results for `CC1CCN[C@@H](C(=O)N2CCC[C@H]2C(=O)NCc2ccc(C(=N)N)cc2)C1` (stereo partly drawn) [Example 10, (D)(4-Me)Pic-Pro-NH-p-amb.2CH3COOH] are over 100 µM and 20 µM. In the same order, the values of `N=C(N)c1ccc(CNC(=O)[C@@H]2CCCN2C(=O)[C@H]2Cc3ccccc3CN2)cc1` [Example 11, H-(D)3-Tic-Pro-NH-p-amb.2CH3COOH] are over 100 µM and 30 µM. Turning to `N=C(N)c1ccc(CNC(=O)[C@@H]2CCCN2C(=O)[C@@H](Cc2ccccc2)NCCCS(=O)(=O)O)cc1` [Example 12, HO3S—(CH2)3-(D)Phe-Pro-NH-p-amb.HCl], the results for the IC50 in test [1] and in test [2] were over 100 µM and 30 µM, respectively. In the same order, the values of `CS(=O)(=O)N[C@H](CC1CCCCC1)C(=O)N1CC=C[C@H]1C(=O)NCc1ccc(C(=N)N)nc1` [Example 13, CH3—SO2-(D)Cha-Pyr-NH-3-(6-am)-pico.CH3COOH] are 30 µM and 10 µM. `CS(=O)(=O)N[C@@H](C(=O)N1CCC[C@H]1C(=O)NCc1ccc(C(=N)N)nc1)C1CCCCC1` [Example 14, CH3—SO2-(D)Chg-Pro-NH-3-(6-am)-pico.CH3COOH]: the values for the IC50 in test [1] and in test [2] were over 100 µM and 20 µM, respectively. In the same order, the values of `N=C(N)c1ccc(CNC(=O)[C@@H]2C=CCN2C(=O)[C@@H](CC2CCCCC2)NS(=O)(=O)Cc2ccccc2)cn1` [Example 15, C6H5—CH2—SO2-(D)Cha-Pyr-NH-3-(6-am)-pico.CH3COOH] are 3 µM and 2 µM. As to `N=C(N)c1ccc(CNC(=O)[C@@H]2CCCN2C(=O)[C@H](NS(=O)(=O)CC(=O)O)C2CCCCC2)cn1` [Example 16, HOOC—CH2—SO2-(D)Chg-Pro-NH-3-(6-am)-pico.CH3COOH], the results for the IC50 in test [1] and in test [2] were over 100 µM and 20 µM, respectively. In the same order, the values of `COC(=O)CS(=O)(=O)N[C@@H](C(=O)N1CCC[C@H]1C(=O)NCc1ccc(C(=N)N)nc1)C1CCCCC1` [Example 17, CH3OOC—CH2—SO2-(D)Chg-Pro-NH-3-(6-am)-pico.CH3COOH] are 40 µM and 4 µM. In the same order, the values of `N=C(N)c1ccc(CNC(=O)[C@@H]2C=CCN2C(=O)[C@H](NCC(=O)O)C2CCCCC2)cn1` [Example 18, HOOC—CH2-(D)Chg-Pyr-NH-3-(6-am)-pico.CH3COOH] are 10 µM and 7 µM. On the same counts, the results for `N=C(N)c1ccc(CNC(=O)[C@@H]2C=CCN2C(=O)C(CCC2CCCCC2)NCC(=O)O)cn1` (stereo partly drawn) [Example 19, HOOC—CH2-HCha-Pyr-NH-3-(6-am)-pico] are 30 µM and 30 µM. On to `CC(C)(C)OC(=O)Nc1ccc(CS(=O)(=O)N[C@H](CC2CCCCC2)C(=O)N2CC=C[C@H]2C(=O)NCc2ccc(C(=N)N)nc2)cc1` [Example 20, Boc-NH-p-C6H4CH2—SO2-(D)Cha-Pyr-NH-3-(6-am)-pico-CH3COOH], for which the IC50 came to 0.6 µM in test [1] and 2 µM in test [2]. Consider `N=C(N)c1ccc(CNC(=O)[C@@H]2C=CCN2C(=O)[C@@H](CC2CCCCC2)NS(=O)(=O)Cc2ccc(N)cc2)cn1` [Example 21, H2N-p-C6H4CH2—SO2-(D)Cha-Pyr-NH-3-(6-am)-pico-HCl], for which the figures for the IC50 in test [1] and in test [2] were 4 µM and 1 µM, respectively.

In the case of `CC(C)(C)OC(=O)Nc1ccc(CS(=O)(=O)N[C@@H](C(=O)N2CC=C[C@H]2C(=O)NCc2ccc(C(=N)N)nc2)C2CCCCC2)cc1` [Example 22, Boc-NH-p-C6H4—CH2—SO2-(D)Chg-Pyr-NH-3-(6-am)-pico.CH3COOH], the figures for the IC50 in test [1] and in test [2] were 0.9 µM and 0.6 µM, respectively.

`N=C(N)c1ccc(CNC(=O)[C@@H]2C=CCN2C(=O)[C@H](NS(=O)(=O)Cc2ccc(N)cc2)C2CCCCC2)cn1` [Example 23, H2N-p-C6H4—CH2—SO2-(D)Chg-Pyr-NH-CH2-3-(6-am)-pico.HCl]: the IC50 is 0.5 µM in test [1] and 0.8 µM in test [2].

As to `N=C(N)c1ccc(CNC(=O)[C@@H]2CCCN2C(=O)[C@H](NCCCCCC(=O)O)C2CCCCC2)cn1` [Example 24, HOOC—(CH2)5-(D)Chg-Pro-NH-3-(6-am)-pico.CH3COOH], the results for the IC50 in test [1] and in test [2] were over 100 µM and 0.8 µM, respectively.

As to `CCOC(=O)CCCCCN[C@@H](C(=O)N1CCC[C@H]1C(=O)NCc1ccc(C(=N)N)nc1)C1CCCCC1` [Example 25, C2H5OOC—(CH2)5-(D)Chg-Pro-NH-3-(6-am)-pico.CH3COOH], the IC50 stood at 50 µM in test [1] and 6 µM in test [2].

For `N=C(N)c1ccc(CNC(=O)[C@@H]2CCCN2C(=O)[C@H](NCCCCC(=O)O)C2CCCCC2)cn1` [Example 26, HOOC—(CH2 )4-(D)Chg-Pro-NH-3-(6-am)-pico.CH3COOH], the IC50 in test [1] is over 100 µM; in test [2], 2 µM. In the same order, the values of `CC(C)(C)OC(=O)CCCN[C@@H](C(=O)N1CCC[C@H]1C(=O)NCc1ccc(C(=N)N)nc1)C1CCCCC1` [Example 27, t-BUOOC—(CH2)3-(D)Chg-Pro-NH-3-(6-am)-pico.CH3COOH] are 10 µM and 20 µM. In the same order, the values of `N=C(N)c1ccc(CNC(=O)[C@@H]2C=CCN2C(=O)CN(Cc2ccccc2)Cc2ccccc2)cn1` [Example 28, (C6H5—CH2)2-Gly-Pyr-NH-3-(6-am)-pico.CH3COOH] are over 100 µM and 20 µM.

Take `N=C(N)c1ccc(CNC(=O)[C@@H]2C=CCN2C(=O)[C@H](NCC(=O)O)C2CCCCC2)s1` [Example 29, HOOC—CH2-(D)Chg-Pyr-NH-CH2-5-(2-am)-thioph.CH3COOH]: the IC50 came out at 0.9 µM in test [1] and 0.6 µM in test [2]. Regarding `N=C(N)Nc1ncc(CNC(=O)[C@@H]2C=CCN2C(=O)[C@@H](CC2CCCCC2)NCC(=O)O)s1` [Example 54, N-(Hydroxycarbonyl-methylene)-(D)cyclohexylalanyl-3,4-dehydroprolyl-[5-(2-guanidino)thiazolylmethyl]amide Bishydrochloride], in test [2], the IC50 worked out at 8 µM.
